US9850283B2, “Macrocyclic inhibitors of the PD-1/PD-L1 and CD80(B7-1)/PD-L1 protein/protein interactions” (BRISTOL-MYERS SQUIBB COMPANY, priority 2013, dated 2017)
Like-named read-outs stand apart in the source and are kept apart here. Positions of bridges follow the written chain, without caps; N, C: chain ends. Non-standard residues stand in square brackets, D forms with d. Residues, ends and D or L forms follow the SMILES beside them. ξ: configuration not given here. *: point of attachment. Ala(benzothiazol-2-yl) = N[C@@H](Cc1nc2ccccc2s1)C(=O)O; Phe(3,4,5-F3) = N[C@@H](Cc1cc(F)c(F)c(F)c1)C(=O)O; Phe(3,5-Cl2) = N[C@@H](Cc1cc(Cl)cc(Cl)c1)C(=O)O; Phe(3,4-F2) = N[C@@H](Cc1ccc(F)c(F)c1)C(=O)O; Ala(thiazol-5-yl) = N[C@@H](Cc1cncs1)C(=O)O; Phe(4-CH2NH2) = NCc1ccc(C[C@H](N)C(=O)O)cc1; Phe(4-Cl) = N[C@@H](Cc1ccc(Cl)cc1)C(=O)O; Phe(4-F) = N[C@@H](Cc1ccc(F)cc1)C(=O)O; Dopa = N[C@@H](Cc1ccc(O)c(O)c1)C(=O)O; Cyclohexanecarbonyl = O=C(C1CCCCC1)*; Bta = N[C@@H](Cc1csc2ccccc12)C(=O)O; Hyp = O=C(O)[C@@H]1C[C@@H](O)CN1; NMeF = CN[C@@H](Cc1ccccc1)C(=O)O; NMeNle = CCCC[C@H](NC)C(=O)O; NMeA = CN[C@@H](C)C(=O)O; Dab = NCC[C@H](N)C(=O)O; Dap = NC[C@H](N)C(=O)O; ξhCys = NC(CCS)C(=O)O; Sar = CNCC(=O)O

Experiments:
Human PD-L1/PD-1 = target: T1, Human PD-L1/PD-1 (Homo sapiens, UniProt Q9NZQ7); test: HTRF PD-1-Ig/PD-L1-His binding assay (human PD-L1); conditions: cluster symbol; read-out: HTRF IC50 cluster
T1 construct: made in house; host or cells: HEK293T
T1 sequence (Q9NZQ7 with tags, fused parts or gaps): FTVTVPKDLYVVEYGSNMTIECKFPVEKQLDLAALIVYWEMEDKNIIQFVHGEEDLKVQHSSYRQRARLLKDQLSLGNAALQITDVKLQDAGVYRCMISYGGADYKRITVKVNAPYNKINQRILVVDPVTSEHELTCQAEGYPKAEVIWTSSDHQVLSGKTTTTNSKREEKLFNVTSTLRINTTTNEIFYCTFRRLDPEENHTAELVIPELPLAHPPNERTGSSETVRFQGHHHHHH
How it was run: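 Interaction of Fc-tagged soluble PD-1 with His-tagged soluble PD-L1 is monitored by time-resolved FRET. Donor is europium cryptate anti-Ig (1 nM final) and acceptor is APC anti-His (20 nM final). Assay buffer is dPBS with 0.1% BSA and 0.05% Tween-20.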

[1] = target: T2, LK35.2-hPD-L1 cells / PE-labeled PD-1-Ig (Homo sapiens, UniProt Q9NZQ7); test: LK35.2-hPD-L1 cell binding high-content screening assay; format: cell-based; conditions: cluster symbol, read-out: CBA IC50 cluster
T2 construct: expressed in transfected cells; host or cells: LK35.2 mouse B cell line
T2 sequence (Q9NZQ7 19-290): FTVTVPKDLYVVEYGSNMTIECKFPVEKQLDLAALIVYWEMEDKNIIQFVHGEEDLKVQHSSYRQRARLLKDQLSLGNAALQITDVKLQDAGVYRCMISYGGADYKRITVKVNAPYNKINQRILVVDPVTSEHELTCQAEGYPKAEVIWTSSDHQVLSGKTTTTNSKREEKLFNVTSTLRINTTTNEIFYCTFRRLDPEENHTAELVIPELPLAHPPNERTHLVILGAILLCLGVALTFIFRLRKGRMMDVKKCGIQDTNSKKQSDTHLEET
How it was run: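 Binding of PE-conjugated human PD-1-Ig (1 nM final) to human PD-L1 stably expressed on a mouse B-cell line (LK35.2) was measured by high-content imaging after washes. Compound and labeled PD-1-Ig were co-incubated 1 h at 37 °C with cells in RPMI/10% FCS.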

[2] = cell binding assay, cell line not given
[3] = cell line of CBA not given (LK35.2-hPD-L1 or 293T-hPD-L1)

IC50 (Human PD-L1/PD-1) [nM] | IC50 [1, 2] [nM] | IC50 [1, 3] [nM] | SMILES
> 30.5 | > 74.3 | – | CCCC[C@H]1C(=O)N(C)CC(=O)N[C@@H](CC(=O)O)C(=O)N[C@@H](C(C)C)C(=O)N(C)[C@@H](Cc2ccccc2)C(=O)N[C@@H](Cc2ccc(O)cc2)C(=O)N(C)CC(=O)N[C@@H](Cc2nc3ccccc3s2)C(=O)N[C@@H](Cc2ccc(O)cc2)C(=O)N[C@@H](CC(C)C)C(=O)N[C@H](C(=O)NCC(N)=O)CSCC(=O)N[C@@H](Cc2ccccc2)C(=O)N(C)[C@@H](Cc2ccccc2)C(=O)N1C [Example 3557] ({CH2CO}-F[NMeF][NMeNle][Sar]DV[NMeF]Y[Sar][Ala(benzothiazol-2-yl)]YLCG-NH2; thioether N-13)
0.385 to 6.74 | 0.158 to 4.71 | – | CCCC[C@H]1C(=O)N(C)[C@@H](CCCC)C(=O)N[C@@H](CCCNC(=N)N)C(=O)N[C@H](C(=O)NCC(N)=O)CSCC(=O)N[C@@H](Cc2ccc(O)cc2)C(=O)N(C)[C@@H](C)C(=O)N[C@@H](CC(N)=O)C(=O)N2CCC[C@H]2C(=O)N[C@@H](Cc2cnc[nH]2)C(=O)N[C@@H](CCCCN)C(=O)N2C[C@H](O)C[C@H]2C(=O)N[C@@H](Cc2c[nH]c3ccccc23)C(=O)N[C@@H](CO)C(=O)N[C@@H](Cc2c[nH]c3ccccc23)C(=O)N1C [Example 5024] ({CH2CO}-Y[NMeA]NPHK[Hyp]WSW[NMeNle][NMeNle]RCG-NH2; thioether N-14)
6.76 to 30.3 | – | 0.158 to 4.71 | CCCC[C@H]1C(=O)N(C)CC(=O)N[C@@H](CC(=O)O)C(=O)N[C@@H](C(C)C)C(=O)N(C)[C@@H](Cc2ccccc2)C(=O)N[C@@H](Cc2ccc(CN)cc2)C(=O)N(C)CC(=O)N[C@@H](Cc2c[nH]c3ccccc23)C(=O)N[C@@H](Cc2ccc(O)cc2)C(=O)N[C@@H](CC(C)C)C(=O)N[C@H](C(=O)NCC(N)=O)CSCC(=O)N[C@@H](Cc2ccc(F)cc2)C(=O)N(C)[C@@H](Cc2ccccc2)C(=O)N1C [Example 3123] ({CH2CO}-[Phe(4-F)][NMeF][NMeNle][Sar]DV[NMeF][Phe(4-CH2NH2)][Sar]WYLCG-NH2; thioether N-13)
6.76 to 30.3 | – | 4.78 to 72.9 | CCCC[C@H]1C(=O)N(C)[C@@H](CCCC)C(=O)N[C@@H](CCCNC(=N)N)C(=O)N[C@H](C(=O)NCC(N)=O)CSCC(=O)N[C@@H](Cc2ccccc2)C(=O)N(C)[C@@H](C)C(=O)N[C@@H](CC(N)=O)C(=O)N2CCC[C@H]2C(=O)N[C@@H](CCN)C(=O)N[C@@H](CC(C)C)C(=O)N(C)CC(=O)N[C@@H](Cc2c[nH]c3ccccc23)C(=O)N[C@@H](CO)C(=O)N[C@@H](Cc2c[nH]c3ccccc23)C(=O)N1C [Example 1062] ({CH2CO}-F[NMeA]NP[Dab]L[Sar]WSW[NMeNle][NMeNle]RCG-NH2; thioether N-14)
0.385 to 6.74 | 4.78 to 72.9 | – | CCCC[C@H]1C(=O)N(C)[C@@H](CCCC)C(=O)N[C@@H](CCCNC(=N)N)C(=O)NC(C(=O)NCC(N)=O)CCSCC(=O)N[C@@H](Cc2ccc(O)cc2)C(=O)N(C)[C@@H](C)C(=O)N[C@@H](CC(N)=O)C(=O)N2CCC[C@H]2C(=O)N[C@@H](Cc2cnc[nH]2)C(=O)N[C@@H](CC(C)C)C(=O)N2C[C@H](O)C[C@H]2C(=O)N[C@@H](Cc2c[nH]c3ccccc23)C(=O)N[C@@H](CO)C(=O)N[C@@H](Cc2csc3ccccc23)C(=O)N1C (stereo partly shown) [Example 9020] ({CH2CO}-Y[NMeA]NPHL[Hyp]WS[Bta][NMeNle][NMeNle]R[ξhCys]G-NH2; thioether N-14)
6.76 to 30.3 | 4.78 to 72.9 | – | CCCC[C@H]1C(=O)N(C)CC(=O)N[C@@H](CC(=O)O)C(=O)N[C@@H](C(C)C)C(=O)N(C)[C@@H](Cc2ccccc2)C(=O)N[C@@H](Cc2ccc(O)cc2)C(=O)N(C)CC(=O)N[C@@H](Cc2c[nH]c3ccccc23)C(=O)N[C@@H](Cc2ccc(O)cc2)C(=O)N[C@@H](Cc2ccc(O)cc2)C(=O)N[C@H](C(=O)NCC(N)=O)CSCC(=O)N[C@@H](Cc2ccccc2)C(=O)N(C)[C@@H](Cc2ccccc2)C(=O)N1C [Example 3519] (HELM PEPTIDE1{[O=C(C[*:3])[*:2]].F.[meF].[CCCC[C@@H](C(=O)[*:2])N(C)[*:1]].[Sar].D.V.[meF].Y.[Sar].W.Y.Y.C.G.[am]}$PEPTIDE1,PEPTIDE1,1:R3-14:R3$$$V2.0)
6.76 to 30.3 | – | 0.158 to 4.71 | CCCC[C@H]1C(=O)N(C)CC(=O)N[C@@H](CC(=O)O)C(=O)N[C@@H](C(C)C)C(=O)N(C)[C@@H](Cc2ccccc2)C(=O)N[C@@H](Cc2ccc(O)cc2)C(=O)N(C)CC(=O)N[C@@H](Cc2c[nH]c3ccccc23)C(=O)N[C@@H](Cc2ccc(O)cc2)C(=O)N[C@@H](CC(C)C)C(=O)N[C@H](C(=O)NCC(N)=O)CSCC(=O)N[C@@H](Cc2ccc(F)c(F)c2)C(=O)N(C)[C@@H](Cc2ccccc2)C(=O)N1C [Example 3130] ({CH2CO}-[Phe(3,4-F2)][NMeF][NMeNle][Sar]DV[NMeF]Y[Sar]WYLCG-NH2; thioether N-13)
> 30.5 | – | > 74.3 | CCCC[C@H]1C(=O)N[C@@H](CCCNC(=N)N)C(=O)N[C@H](C(=O)NCC(N)=O)CSCC(=O)N[C@@H](Cc2ccccc2)C(=O)N(C)[C@@H](C)C(=O)N[C@@H](CC(N)=O)C(=O)N2CCC[C@H]2C(=O)N[C@@H](Cc2cnc[nH]2)C(=O)N[C@@H](CC(C)C)C(=O)N(C)CC(=O)N[C@@H](Cc2c[nH]c3ccccc23)C(=O)N[C@@H](CO)C(=O)N[C@@H](Cc2c[nH]c3ccccc23)C(=O)N[C@@H](CNC(=O)C2CCCCC2)C(=O)N1C [Example 1017] ({CH2CO}-F[NMeA]NPHL[Sar]WSW[Dap](Cyclohexanecarbonyl)[NMeNle]RCG-NH2; thioether N-14)
0.385 to 6.74 | 0.158 to 4.71 | – | CCCC[C@H]1C(=O)N(C)[C@@H](CCCC)C(=O)N[C@@H](CCN)C(=O)N[C@H](C(=O)NCC(N)=O)CSCC(=O)N[C@@H](Cc2ccc(O)cc2)C(=O)N(C)[C@@H](C)C(=O)N[C@@H](CCN)C(=O)N2CCC[C@H]2C(=O)N[C@@H](Cc2c[nH]cn2)C(=O)N[C@@H](CCC(=O)O)C(=O)N2C[C@H](O)C[C@H]2C(=O)N[C@@H](Cc2c[nH]c3ccccc23)C(=O)N[C@@H](CCN)C(=O)N[C@@H](Cc2c[nH]c3ccccc23)C(=O)N1C [Example 5104] ({CH2CO}-Y[NMeA][Dab]PHE[Hyp]W[Dab]W[NMeNle][NMeNle][Dab]CG-NH2; thioether N-14)
6.76 to 30.3 | – | 4.78 to 72.9 | CCCC[C@H]1C(=O)N(C)[C@@H](CCCC)C(=O)N[C@@H](CCCNC(=N)N)C(=O)N[C@H](C(=O)NCC(N)=O)CSCC(=O)N[C@@H](Cc2ccc(Cl)cc2)C(=O)N(C)[C@@H](C)C(=O)N[C@@H](CC(N)=O)C(=O)N2CCC[C@H]2C(=O)N[C@@H](Cc2cnc[nH]2)C(=O)N[C@@H](CC(C)C)C(=O)N2CCC[C@H]2C(=O)N[C@@H](Cc2c[nH]c3ccccc23)C(=O)N[C@@H](CO)C(=O)N[C@@H](Cc2c[nH]c3ccccc23)C(=O)N1C [Example 1117] ({CH2CO}-[Phe(4-Cl)][NMeA]NPHLPWSW[NMeNle][NMeNle]RCG-NH2; thioether N-14)
> 30.5 | – | > 74.3 | CCCC[C@H]1C(=O)N(C)[C@@H](CCCC)C(=O)N[C@@H](CCCNC(=N)N)C(=O)N[C@H](C(=O)NCC(N)=O)CSCC(=O)N[C@@H](Cc2ccccc2)C(=O)N(C)[C@@H](C)C(=O)N[C@@H](CC(N)=O)C(=O)N2CCC[C@H]2C(=O)N[C@@H](Cc2cncs2)C(=O)N[C@@H](CC(C)C)C(=O)N(C)CC(=O)N[C@@H](Cc2c[nH]c3ccccc23)C(=O)N[C@@H](CO)C(=O)N[C@@H](Cc2c[nH]c3ccccc23)C(=O)N1C [Example 1067] ({CH2CO}-F[NMeA]NP[Ala(thiazol-5-yl)]L[Sar]WSW[NMeNle][NMeNle]RCG-NH2; thioether N-14)
6.76 to 30.3 | – | 4.78 to 72.9 | CCCC[C@H]1C(=O)N(C)[C@@H](CCCC)C(=O)N[C@@H](CCCNC(=N)N)C(=O)N[C@H](C(=O)NCC(N)=O)CSCC(=O)N[C@@H](Cc2ccccc2)C(=O)N(C)[C@@H](C)C(=O)N[C@@H](CC(N)=O)C(=O)N2CCC[C@H]2C(=O)N[C@@H](CO)C(=O)N[C@@H](CC(C)C)C(=O)N(C)CC(=O)N[C@@H](Cc2c[nH]c3ccccc23)C(=O)N[C@@H](CO)C(=O)N[C@@H](Cc2c[nH]c3ccccc23)C(=O)N1C [Example 1088] ({CH2CO}-F[NMeA]NPSL[Sar]WSW[NMeNle][NMeNle]RCG-NH2; thioether N-14)
> 30.5 | – | 4.78 to 72.9 | CCCC[C@H]1C(=O)N(C)CC(=O)N[C@@H](CC(=O)O)C(=O)N[C@@H](C(C)C)C(=O)N(C)[C@@H](Cc2ccccc2)C(=O)N[C@@H](Cc2ccc(O)cc2)C(=O)N(C)CC(=O)N[C@@H](Cc2c[nH]c3ccccc23)C(=O)N[C@@H](Cc2ccc(O)cc2)C(=O)N[C@@H](CC(C)C)C(=O)N[C@H](C(=O)NCC(N)=O)CSCC(=O)N[C@@H](Cc2cc(Cl)cc(Cl)c2)C(=O)N(C)[C@@H](Cc2ccccc2)C(=O)N1C [Example 3179] ({CH2CO}-[Phe(3,5-Cl2)][NMeF][NMeNle][Sar]DV[NMeF]Y[Sar]WYLCG-NH2; thioether N-13)
0.385 to 6.74 | 0.158 to 4.71 | – | CCCC[C@H]1C(=O)N(C)CC(=O)N[C@@H](CC(=O)O)C(=O)N[C@@H](C(C)C)C(=O)N(C)[C@@H](Cc2ccccc2)C(=O)N[C@@H](Cc2ccc(O)cc2)C(=O)N(C)CC(=O)N[C@@H](Cc2c[nH]c3ccccc23)C(=O)N[C@@H](Cc2ccc(O)c(O)c2)C(=O)N[C@@H](CC(C)C)C(=O)N[C@H](C(=O)NCC(N)=O)CSCC(=O)N[C@@H](Cc2cc(F)c(F)c(F)c2)C(=O)N(C)[C@@H](Cc2ccccc2)C(=O)N1C [Example 3609] ({CH2CO}-[Phe(3,4,5-F3)][NMeF][NMeNle][Sar]DV[NMeF]Y[Sar]W[Dopa]LCG-NH2; thioether N-13)
